Results taken from patent publication US11191271B2, “Active compound combinations having insecticidal/acaricidal properties” (priority 2017, dated 2021).

Columns and labels:
Format in all cases: in vivo
[1] = tested on: two spotted spidermite (Tetranychus urticae); experiment: Tetranychus urticae - spray test OP-resistant; conditions: for Efficacy in % after 6 days: mortality after 6 days; for Efficacy in % after 2 days: mortality after 2 days
Protocol: (§1) Formula for the Efficacy of the Combination of Two Compounds • The expected efficacy of a given combination of two compounds is calculated as follows (see Colby, S. R., “Calculating Synergistic and antagonistic Responses of Herbicide Combinations”, Weeds 15, pp. 20-22, 1967): • If • X is the efficacy expressed in % mortality of the untreated control for test compound A at a concentration of m ppm respectively m g/ha, • Y is the efficacy expressed in % mortality of the untreated control for test compound B at a concentration of n ppm respectively n g/ha, • E is the efficacy expressed in % mortality of the untreated control using the mixture of A and B at m and n ppm respectively m and n g/ha, • then is
(§2) [formula] • If the observed insecticidal efficacy of the combination is higher than the one calculated as “E”, then the combination of the two compounds is more than additive, i.e. there is a synergistic effect.
Tetranychus urticae—Spray Test OP-Resistant
(§3) To produce a suitable preparation of active compound, 1 part by weight of active compound is mixed with the stated amount of solvents and is diluted with water, containing an emulsifier concentration of 1000 ppm, to the desired concentration. Further test concentrations are prepared by dilution with emulsifier containing water.
French bean (Phaseolus vulgaris) leaf disks infected with all instars of the two spotted spidermite (Tetranychus urticae), are sprayed with a preparation of the active ingredient of the desired concentration.
After the specified period of time, mortality in % is determined. 100% means all spider mites have been killed and 0% means none of the spider mites have been killed. The mortality values determined thus are recalculated using the Colby-formula (see above).

[2] = tested on: caterpillars of the fall army worm (Spodoptera frugiperda); experiment: Spodoptera frugiperda - spray test; conditions: for Efficacy in % after 1 day: mortality after 1 day; for Efficacy in % after 2 days: mortality after 2 days; for Efficacy in % after 3 days: mortality after 3 days; for Efficacy in % after 6 days: mortality after 6 days
Protocol: as §1, §2
Spodoptera frugiperda—Spray Test
(§4) Solvent: 7 parts by weight of dimethylformamide
(§5) Emulsifier: alkylaryl polyglycol ether
as §3, with “solvent” for “solvents”
Cotton leaves (Gossypium hirsutum) are treated by being sprayed with the preparation of the active compound of the desired concentration and are infested with caterpillars of the fall army worm (Spodoptera frugiperda).
After the specified period of time mortality in % is determined. 100% means all the caterpillars have been killed and 0% means none of the caterpillars have been killed. The mortality values determined thus are recalculated using the Colby-formula (see above).

[3] = tested on: cotton aphid (Aphis gossypii); experiment: Aphis gossypii - spray test; conditions: for Efficacy in % after 6 days: mortality after 6 days; for Efficacy in % after 1 day: mortality after 1 day, cotton leaves
Protocol: as §1, §2
Aphis gossypii—Spray Test
as §4, §5
as §3, with “solvent” for “solvents”
Cotton leaves (Gossypium hirsutum) which are heavily infested with the cotton aphid (Aphis gossypii) are treated by being sprayed with the preparation of the active compound of the desired concentration.
After the specified period of time the mortality in % is determined. 100% means all the aphids have been killed; 0% means none of the aphids have been killed. The mortality values determined thus are recalculated using the Colby-formula (see above).

SMILES: CNC(=O)c1cc(C#N)cc(C)c1NC(=O)c1cc(Cn2nnc(C(F)(F)F)n2)nn1-c1ncccc1Cl [Tetraniliprole, 1-(3-chloro-2-pyridyl)-4′-cyano-2′-methyl-6′-methylcarbamoyl-3-{[5-(trifluoromethyl)-2H-tetrazol-2-yl]methyl}pyrazole-5-carboxanilide]
- Efficacy in % after 6 days ([1]; 0.05 g ai/ha): 0%
- Efficacy in % after 2 days ([1]; 0.2 g ai/ha): 0%
- Efficacy in % after 2 days ([1]; 0.8 g ai/ha): 0%
- Efficacy in % after 2 days ([1]; 3.2 g ai/ha): 0%
- Efficacy in % after 1 day ([2]; 0.06 ppm): 0%
- Efficacy in % after 2 days ([2]; 0.06 ppm): 60%
- Efficacy in % after 1 day ([2]; 0.12 ppm): 30%
- Efficacy in % after 1 day ([2]; 0.24 ppm): 40%

SMILES: Cc1cc(F)c(N=C2SCC(=O)N2CC(F)(F)F)cc1[S+]([O-])CC(F)(F)F (stereo not shown) [Cpd of formula (I)]
- Efficacy in % after 6 days ([1]; 0.1 g ai/ha): 0%
- Efficacy in % after 2 days ([1]; 0.4 g ai/ha): 0%
- Efficacy in % after 2 days ([1]; 1.6 g ai/ha): 0%
- Efficacy in % after 2 days ([1]; 6.4 g ai/ha): 0%
- Efficacy in % after 6 days ([3]; 0.8 ppm): 0%
- Efficacy in % after 1 day ([3]; 1.6 ppm): 0%
- Efficacy in % after 6 days ([3]; 1.6 ppm): 0%
- Efficacy in % after 1 day ([2]; 0.3 ppm): 0%
- Efficacy in % after 2 days ([2]; 0.3 ppm): 0%
- Efficacy in % after 3 days ([2]; 0.3 ppm): 0%
- Efficacy in % after 6 days ([2]; 0.3 ppm): 0%
- Efficacy in % after 1 day ([2]; 0.6 ppm): 0%
- Efficacy in % after 2 days ([2]; 0.6 ppm): 0%
- Efficacy in % after 3 days ([2]; 0.6 ppm): 0%
- Efficacy in % after 6 days ([2]; 0.6 ppm): 0%
- Efficacy in % after 1 day ([2]; 1.2 ppm): 0%
- Efficacy in % after 3 days ([2]; 1.2 ppm): 0%
- Efficacy in % after 6 days ([2]; 1.2 ppm): 0%

SMILES: CNC(=O)c1cc(C#N)cc(C)c1NC(=O)c1cc(Br)nn1-c1ncccc1Cl [Cyantraniliprole, 3-bromo-1-(3-chloro-2-pyridyl)-4′-cyano-2′-methyl-6′-(methylcarbamoyl)pyrazole-5-carboxanilide]
- Efficacy in % after 2 days ([1]; 0.2 g ai/ha): 0%
- Efficacy in % after 2 days ([1]; 0.8 g ai/ha): 0%
- Efficacy in % after 2 days ([1]; 3.2 g ai/ha): 0%
- Efficacy in % after 2 days ([2]; 0.12 ppm): 0%
- Efficacy in % after 3 days ([2]; 0.12 ppm): 0%
- Efficacy in % after 6 days ([2]; 0.12 ppm): 10%
- Efficacy in % after 1 day ([2]; 0.24 ppm): 0%
- Efficacy in % after 2 days ([2]; 0.24 ppm): 0%
- Efficacy in % after 3 days ([2]; 0.24 ppm): 10%
- Efficacy in % after 6 days ([2]; 0.24 ppm): 20%
- Efficacy in % after 3 days ([2]; 0.48 ppm): 60%
- Efficacy in % after 6 days ([2]; 0.48 ppm): 70%

SMILES: CNC(=O)c1cc(Cl)cc(C)c1NC(=O)c1cc(Br)nn1-c1ncccc1Cl [Chlorantraniliprole, 3-bromo-4′-chloro-1-(3-chloro-2-pyridyl)-2′-methyl-6′-(methylcarbamoyl)pyrazole-5-carboxanilide]
- Efficacy in % after 2 days ([1]; 0.2 g ai/ha): 0%
- Efficacy in % after 2 days ([1]; 0.8 g ai/ha): 0%
- Efficacy in % after 2 days ([1]; 3.2 g ai/ha): 0%
- Efficacy in % after 1 day ([3]; 8 ppm): 10%
- Efficacy in % after 6 days ([3]; 8 ppm): 45%
